These results are taken from patent publication US12043601B2, “N-substituted-1H-1,2,4-triazole-3-carboxamides, analogues thereof, and methods of treatment using same” (THE REGENTS OF THE UNIVERSITY OF COLORADO, priority 2018, dated 2024).

Each structure is given as a SMILES string. pIC50: −log10 of the molar value. Converted amounts (≈) assume the structure as drawn.

Series [1] deals with T1, DksA (Salmonella typhimurium, UniProt P0A1G5). The series can be described thus: DksA-mediated repression of rpsM in vitro transcription (IVT, qRT-PCR). Type of series: biochemical. On the procedure:
(§1) To measure the potency of a compound in inhibition of DksA biological function, rpsMtranscripts in vitro was determined by non-radioactive in vitro transcription reactions with qPCR analysis with divergent compounds. Briefly, 5 nM pTIM-rpsMplasmid was mixed with […] of compounds in 10 μl reaction buffer (40 mM HEPES [pH 7.4], 2 mM MgCl2, 60 mM potassium glutamate, 0.05% NP-40, 200 μM ATP, 200 μM GTP, 200 μM CTP, 200 μM UTP, and 5 nM E. coli RNA polymerase holoenzyme (NEB, Ipswich, MA) with 5 μM DksA. The in vitro transcription was carried out at 37° C. for 10 min, and then terminated at 70° C. for 10 min. To remove template DNA after treated with DNaseI, DNA-free DNA Removal kit (ThermoFisher) was used according to manufacturer's direction. The resulting materials were used as templates to generate cDNA with 100 U MMLV reverse transcriptase (Promega), 0.45 μM gene specific primer, and 20 U RNase inhibitor (Promega). The amount of cDNA synthesized for 1 h at 42° C. was quantified by real-time PCR (qRT-PCR). The copy number of specific transcripts was calculated to the standard curve generated with known gene copy concentrations. The IC50 is the concentration at which the curve passes through the 50% inhibition level. Standard deviation was calculated from 3 independent experiments.
The compounds obtained in this screen were further analyzed for binding to the acidic pocket at the tip of DksA coiled-coil domain using the computer search program Dock. The analysis identified over 400 compounds. A panel of 40 compounds was selected from the top hits based on free energy binding scores. These compounds were investigated using the computer modeling program O. Two additional criteria were applied in order to narrow down the list of candidates: First, the compounds needed to fit deep into the pocket without any clashes; and second, the compounds bound to DksA should have minimal exposed moieties. The compounds selected were further refined according to energy minimization as calculated by the CNS program. 23 compounds were obtained from MolPort and they were tested for their ability to interfere with DksA in a high throughput screen that combined in vitro transcription with highly specific and quantitative qRT-PCR. Five of these compounds, including N-(3,4-dimethoxyphenyl)-1H-1,2,4-triazole-3-carboxamide (1), prevented DksA-mediated repression of rpsM in vitro transcription to some degree. […] Without intending to be limited to any particular theory, the effect that 1 has on DksA-dependent rpsM or hisG gene transcription is potentially due to differences in promoter activity.
(§2) The compounds were initially tested at 0.1 μM and 1 μM using as a target the promoter of the livJ gene that encodes a transporter of branch-chain amino acids (Table 4).
On the technique in general: Quantitative PCR measures a nucleic acid by following its amplification.

Series [2] concerns the target T1, DksA. The series is described as follows: DksA-dependent livJ in vitro transcription. Type of series: biochemical. As to conditions: livJ promoter; for IVT: concentration showing activity. As for the experimental part: as §1, §2
Another series concerns Salmonella strain 14028s. The series can be described thus: Minimum inhibitory concentration in EG minimal media. The series is classed as cell-based, Salmonella Typhimurium. As to conditions: 18 h; for Growth in EG at concentration tested 1 μg/ml / Growth in EG at concentration tested 2 μg/ml / Growth in EG at concentration tested 4 μg/ml / Growth in EG at concentration tested 8 μg/ml: EG minimal media, 37° C.; for MIC: Salmonella, 14028S. As for the experimental part: DksA controls transcription of metabolic and virulence genes, allowing bacteria to both grow in minimum media and cause disease. Inhibition of bacterial growth in EG minimum media was used as an easy and reliable proxy of the DksA-dependent regulation of metabolism.
In a non-limiting example, wild-type Salmonella strain 14028s was grown overnight (18.5 h), and then diluted in EG minimal media to a density of about 10^5 CFU/mL. […] Each test tube was incubated at 37° C. with shaking for 18 h and bacterial growth was evaluated. The MIC value was determined as the lowest concentration of compound that inhibited growth.

A short description of the next series: Compound solubility. The series is classed as physicochemical. As to conditions: for Compound Solubility, 1 μM: solvent at 1 μM; for Compound Solubility, 10 μM: solvent at 10 μM; for Compound Solubility, 100 μM: solvent at 100 μM; for Compound Solubility, 1 mM: solvent at 1 mM; for Compound Solubility, 10 mM: solvent at 10 mM; for Compound Solubility, 16 mg/ml: solvent at 16 mg/ml.

T1 sequence (P0A1G5 whole entry): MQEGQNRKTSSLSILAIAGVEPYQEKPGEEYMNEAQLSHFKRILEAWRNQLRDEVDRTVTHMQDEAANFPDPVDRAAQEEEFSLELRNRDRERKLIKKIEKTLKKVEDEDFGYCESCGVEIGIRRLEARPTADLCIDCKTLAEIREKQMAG

What is called pIC50 is −log10 of the IC50, conventionally taken in molar units. By MIC is commonly meant the smallest concentration in the dilution series that meets the test's criterion for growth inhibition. A low value points to a more susceptible organism. On DksA [1], `CCCCNC(=O)c1nc[nH]n1` [Compound 12, N-butyl-1H-1,2,4-triazole-3-carboxamide] had a pIC50 of 7.14. For the same compound, at DksA [2], the “In vitro transcription assay result, 0.1 μM” value is on record as “no induction”; the “In vitro transcription assay result, 1 μM” value is “no induction”; the IVT was 0.1 µM. For the same compound, in the series with Salmonella strain 14028s, the “Growth in EG at concentration tested 1 μg/ml” value is listed as “+”, the “Growth in EG at concentration tested 2 μg/ml” value was “+”, the “Growth in EG at concentration tested 4 μg/ml” value was “+” and the MIC came to 8 µg/mL (≈ 47.6 µM). In the series “Compound solubility”, the “Compound Solubility, 1 μM” value is on record as “water”; the “Compound Solubility, 10 μM” value is “water”; the “Compound Solubility, 100 μM” value was “water”; the “Compound Solubility, 1 mM” value is recorded as “water”. Also, in “Compound solubility”, the “Compound Solubility, 10 mM” value is “water” and the “Compound Solubility, 16 mg/ml” value is “DMSO”.
For the compound `O=C(NCCc1c[nH]c2ccccc12)c1nc[nH]n1` [Compound 19, N-(2-(1H-indol-3-yl)ethyl)-1H-1,2,4-triazole-3-carboxamide], on DksA [1], the pIC50 was 7.12. Also, at DksA [2], the “In vitro transcription assay result, 0.1 μM” value was “no induction”; the “In vitro transcription assay result, 1 μM” value was “no induction”; the IVT turned out to be 0.1 µM. Also, in the series on Salmonella strain 14028s, the “Growth in EG at concentration tested 1 μg/ml” value is recorded as “+”, the “Growth in EG at concentration tested 2 μg/ml” value is recorded as “+”, the “Growth in EG at concentration tested 4 μg/ml” value was “+” and the “Growth in EG at concentration tested 8 μg/ml” value is reported as “+”. Moreover, the minimum inhibitory concentration (MIC) in the series with Salmonella strain 14028s was 16 µg/mL (≈ 62.7 µM). Besides, in the series “Compound solubility”, the “Compound Solubility, 1 μM” value is given as “water”; the “Compound Solubility, 10 μM” value is reported as “water”; the “Compound Solubility, 100 μM” value is recorded as “water”; the “Compound Solubility, 1 mM” value is on record as “water”. Also, in “Compound solubility”, the “Compound Solubility, 10 mM” value was “water” and the “Compound Solubility, 16 mg/ml” value is “DMSO”.
As to `O=C(Nc1cc(Cl)cc(Cl)c1)c1nc[nH]n1` [Compound 14, N-(3,5-dichlorophenyl)-1H-1,2,4-triazole-3-carboxamide], on DksA [1], the pIC50 was 7.15. For the same compound, at DksA [2], the “In vitro transcription assay result, 0.1 μM” value is reported as “no induction”; the “In vitro transcription assay result, 1 μM” value is on record as “no induction”; the IVT stood at 0.1 µM. Moreover, in the series with Salmonella strain 14028s, the “Growth in EG at concentration tested 1 μg/ml” value is recorded as “+”, the “Growth in EG at concentration tested 2 μg/ml” value is “+”, the “Growth in EG at concentration tested 4 μg/ml” value is reported as “+” and inhibition of growth (MIC) required 8 µg/mL (≈ 31.1 µM). Moreover, in “Compound solubility”, the “Compound Solubility, 1 μM” value is reported as “water”; the “Compound Solubility, 10 μM” value is “water”; the “Compound Solubility, 100 μM” value is reported as “water”; the “Compound Solubility, 1 mM” value is recorded as “DMSO”. In the series “Compound solubility”, the “Compound Solubility, 10 mM” value is given as “DMSO” and the “Compound Solubility, 16 mg/ml” value was “DMSO”.
Compound `O=C(NCCc1ccccc1)c1nc[nH]n1` [Compound 20, N-phenethyl-1H-1,2,4-triazole-3-carboxamide] gave a negative logarithm of the IC50 (pIC50) against DksA [1] of 7.05. On DksA [2], the “In vitro transcription assay result, 0.1 μM” value is recorded as “no induction”; the “In vitro transcription assay result, 1 μM” value is “no induction”; the IVT is 0.1 µM. Moreover, in the series with Salmonella strain 14028s, the “Growth in EG at concentration tested 1 μg/ml” value is recorded as “+”, the “Growth in EG at concentration tested 2 μg/ml” value was “+”, the “Growth in EG at concentration tested 4 μg/ml” value is listed as “+” and 8 µg/mL (≈ 37 µM) was the least that counted as inhibitory (MIC). In addition, in “Compound solubility”, the “Compound Solubility, 1 μM” value is on record as “water”; the “Compound Solubility, 10 μM” value is listed as “water”; the “Compound Solubility, 100 μM” value is reported as “water”; the “Compound Solubility, 1 mM” value was “water”. In “Compound solubility”, the “Compound Solubility, 10 mM” value was “water” and the “Compound Solubility, 16 mg/ml” value was “DMSO”.
On DksA [1], `O=C(NCCCc1ccccc1)c1nc[nH]n1` [Compound 15, N-(3-phenylpropyl)-1H-1,2,4-triazole-3-carboxamide] gave a negative logarithm of the IC50 (pIC50) of 7.29. Also, at DksA [2], the “In vitro transcription assay result, 0.1 μM” value was “no induction”; the “In vitro transcription assay result, 1 μM” value was “no induction”; the IVT is 0.1 µM. Moreover, in the series on Salmonella strain 14028s, the “Growth in EG at concentration tested 1 μg/ml” value is given as “+”, the “Growth in EG at concentration tested 2 μg/ml” value is recorded as “+”, the “Growth in EG at concentration tested 4 μg/ml” value is listed as “+” and the “Growth in EG at concentration tested 8 μg/ml” value is “+”. This compound had a minimal inhibitory concentration (MIC) with Salmonella strain 14028s of 16 µg/mL (≈ 69.5 µM). Moreover, in “Compound solubility”, the “Compound Solubility, 1 μM” value is recorded as “water”; the “Compound Solubility, 10 μM” value is “water”; the “Compound Solubility, 100 μM” value is listed as “water”; the “Compound Solubility, 1 mM” value is given as “water”. For the same compound, in “Compound solubility”, the “Compound Solubility, 10 mM” value is “water” and the “Compound Solubility, 16 mg/ml” value was “DMSO”.
`O=C(NCCCCc1ccccc1)c1nc[nH]n1` [Compound 16, N-(4-phenylbutyl)-1H-1,2,4-triazole-3-carboxamide] had a negative-log IC50 (pIC50) on DksA [1] of 7.04. On DksA [2], the “In vitro transcription assay result, 0.1 μM” value is given as “no induction”; the “In vitro transcription assay result, 1 μM” value is listed as “good repression”; the IVT was found to be 0.1 µM. Also, in the series on Salmonella strain 14028s, the “Growth in EG at concentration tested 1 μg/ml” value is given as “+”, the “Growth in EG at concentration tested 2 μg/ml” value is “+”, the “Growth in EG at concentration tested 4 μg/ml” value is reported as “+” and the lowest concentration to inhibit growth (MIC) was 16 µg/mL (≈ 65.5 µM). Besides, in the series “Compound solubility”, the “Compound Solubility, 1 μM” value was “water”; the “Compound Solubility, 10 μM” value was “water”; the “Compound Solubility, 100 μM” value is “water”; the “Compound Solubility, 1 mM” value is “water”. In addition, in “Compound solubility”, the “Compound Solubility, 10 mM” value is “DMSO” and the “Compound Solubility, 16 mg/ml” value is recorded as “DMSO”.
With `COc1cccc(CNC(=O)c2nc[nH]n2)c1` [Compound 7, N-(3-methoxybenzyl)-1H-1,2,4-triazole-3-carboxamide], on DksA [2], the “In vitro transcription assay result, 0.1 μM” value is “no change” and the “In vitro transcription assay result, 1 μM” value is “no change”. Besides, in the series with Salmonella strain 14028s, the “Growth in EG at concentration tested 1 μg/ml” value was “+”, the “Growth in EG at concentration tested 2 μg/ml” value was “+”, the “Growth in EG at concentration tested 4 μg/ml” value is “+” and inhibition of growth (MIC) required 8 µg/mL (≈ 34.4 µM). In “Compound solubility”, the “Compound Solubility, 1 μM” value is “water”; the “Compound Solubility, 10 μM” value is listed as “water”; the “Compound Solubility, 100 μM” value was “water”; the “Compound Solubility, 1 mM” value is listed as “water”. Also, in the series “Compound solubility”, the “Compound Solubility, 10 mM” value is reported as “water” and the “Compound Solubility, 16 mg/ml” value is reported as “DMSO”.
